These results are taken from PubChem BioAssay (NCI).

Values joined by “and” are separate entries in the source; they are usually repeats but may differ in a detail not shown here. Identical values can stand only once.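 Each compound was tested at five concentrations against cells in 96-well plates for 48 hours. Abbreviation: GI50, concentration required for 50% inhibition of growth. TGI: total growth inhibition.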 A value given as a limit tells only on which side of the number the result lay.

Common to all, as to assay: NCI-60 cell line screen, 48 h
In test [1] the test system is DLD-1 colon.
The subject of test [2] is IGROV1 ovarian.
For test [3], the system named is KM20L2 colon.
Test [4] concerns NCI-H522 lung.
The subject of test [5] is NCI/ADR-RES ovarian.
For test [6], the system named is OVCAR-3 ovarian.
The test system of test [7] is OVCAR-8 ovarian.
Test [8] deals with SK-OV-3 ovarian.
Test [9] deals with SR leukemia.
For test [10], the system named is TK-10 renal.

As for `COc1ccccc1/C=C1\CCC(CN2CCOCC2)C1=O` (stereo not given), the TGI turned out to be 18.1 µM in [1]; 29.3 µM in test [2]; 32.6 µM in test [3]; 3.8 µM in [4]; 35.8 µM in test [5]; 15.2 µM in test [6]. Further, the TGI in [7] was 16.9 µM; in test [8] it was above 57.5 µM; in [9] it was 5.7 µM; in test [10] it was 12.5 µM.
`O=[N+]([O-])c1cc(C(F)(F)F)cc2n[se]nc12`: the TGI in test [1] was determined as 8.93 µM; in [2], 14.6 µM; in test [3] it was 16.4 µM; in test [4] it was 6.54 µM; in test [5], 5.11 µM; in test [6], 3.33 µM. For the same molecule, the TGI in test [7] came to 4.25 µM; in [8], 27.5 µM; in test [9], 4.39 µM; in test [10], 8.47 µM.
Take `CN(CO)c1nc(N(C)CO)nc(N(C)CO)n1`: the TGI was 97.2 µM in test [1]; 67.1 µM and 79.1 µM in test [2]; 25.2 µM in test [3]; 43.9 µM and 53.7 µM in test [4]; 54.6 µM and 57.4 µM in [5]; 62.1 µM and 63.5 µM in test [6]. The TGI is 55.6 µM and 38.4 µM in [7]; > 82.1 µM and 54.2 µM in test [8]; > 77.1 µM and 1080 µM in test [9]; 82.9 µM and 77.4 µM in [10]. The GI50 in [2] is 16.1 µM; in test [5] it was 21.7 µM and 20.7 µM; in test [7], 23.6 µM; in test [8] it was 59.1 µM; in test [9], 28.4 µM.
